Data set [1] can be described thus: HLM/RLM stability, % remaining at 30 min. The class given is in vitro ADME.
For data set [2], the target named is T1, ΔF508-CFTR in NIH 3T3 cells (Homo sapiens, UniProt P13569, DEL508-508).
T1 construct: expressed in transfected cells
Briefly: Membrane potential optical potentiator assay (FLIPR III). The class given is cell-based. Particulars: temperature-corrected ΔF508 CFTR NIH 3T3 cells, forskolin. The source says:
The assay utilizes fluorescent voltage sensing dyes to measure changes in membrane potential using a fluorescent plate reader (e.g., FLIPR III, Molecular Devices, Inc.) as a readout for increase in functional ΔF508-CFTR in NIH 3T3 cells. The driving force for the response is the creation of a chloride ion gradient in conjunction with channel activation by a single liquid addition step after the cells have previously been treated with compounds and subsequently loaded with a voltage sensing dye.
To identify potentiators of ΔF508-CFTR, a double-addition HTS assay format was developed. This HTS assay utilizes fluorescent voltage sensing dyes to measure changes in membrane potential on the FLIPR III as a measurement for increase in gating (conductance) of ΔF508 CFTR in temperature-corrected ΔF508 CFTR NIH 3T3 cells. The driving force for the response is a Cl^− ion gradient in conjunction with channel activation with forskolin in a single liquid addition step using a fluorescent plate reader such as FLIPR III after the cells have previously been treated with potentiator compounds (or DMSO vehicle control) and subsequently loaded with a redistribution dye.
Solutions • Bath Solution #1: (in mM) NaCl 160, KCl 4.5, CaCl2 2, MgCl2 1, HEPES 10, pH 7.4 with NaOH. • Chloride-free bath solution: Chloride salts in Bath Solution #1 are substituted with gluconate salts. […]

Data set [3] is described as follows: High throughput shake flask (HTSF) solubility at pH 7.4. The format is physicochemical. Particulars: aqueous buffer, kinetic from dmso stock; pH 7.4 phosphate buffer with 2% DMSO, shaken overnight. On the procedure:
A high throughput shake flask assay was used to determine solubility of compounds in pH 7.4 buffer. To calculate the concentration of compounds in solution, two conditions per compound were run: 300 uM in 100% DMSO and 200 uM in pH 7.4 phosphate buffer with 2% DMSO present. Each sample was left to shake overnight then injected onto HPLC-UV to determine peak area using the following conditions: Phenomenex 00A-4251-B0-30×2.00 mm Luna 3u C18(2) 100A column; 0.8 mL/min flow rate; 20 uL injection volume; HPLC grade water with 0.1% formic acid and HPLC grade acetonitrile with 0.1% formic acid mobile phases; peak area determined at 254 nm. Solubility in uM was calculated using the following equation: conc.=(peak area pH 7.4)/(peak area 300 uM DMSO standard condition)*300 uM concentration of standard condition. Peaks of interest were identified in buffer conditions based on retention time (RT) of the largest area peak in the 300 uM DMSO standard condition.

Another data set addresses Δ508/G551D-HBE (Homo sapiens, UniProt P13569, G551D). Briefly: Ussing chamber assay, Δ508/G551D-HBE. The class given is cell-based.
For the next data set, the target named is T2, ΔF508-CFTR in HBE (Homo sapiens, UniProt P13569, DEL508-508).
T2 construct: CF-HBE were isolated from patients homozygous for ΔF508-CFTR; endogenous in cells; host or cells: primary bronchial epithelial cells (HBE) from CF patients homozygous for ΔF508
Briefly: Ussing chamber assay, Δ508-HBE. Particulars: HBE from patients homozygous for ΔF508-CFTR. The format is cell-based. The method, then:
Ussing chamber experiments were performed on polarized airway epithelial cells expressing ΔF508-CFTR to further characterize the ΔF508-CFTR modulators identified in the optical assays. Non-CF and CF airway epithelia were isolated from bronchial tissue, cultured as previously described (Galietta, L. J. V., Lantero, S., Gazzolo, A., Sacco, O., Romano, L., Rossi, G. A., & Zegarra-Moran, O. (1998) In Vitro Cell. Dev. Biol. 34, 478-481), and plated onto Costar® Snapwell™ filters that were pre-coated with NIH3T3-conditioned media. After four days the apical media was removed and the cells were grown at an air liquid interface for >14 days prior to use. […] CF-HBE were isolated from patients homozygous for ΔF508-CFTR.
HBE grown on Costar® Snapwell™ cell culture inserts were mounted in an Ussing chamber (Physiologic Instruments, Inc., San Diego, Calif.), and the transepithelial resistance and short-circuit current in the presence of a basolateral to apical Cl^− gradient (ISC) were measured using a voltage-clamp system (Department of Bioengineering, University of Iowa, Iowa). Briefly, HBE were examined under voltage-clamp recording conditions (Vhold=0 mV) at 37° C. […]

In another data set the target is CaV 1.2 (Homo sapiens, UniProt Q13936). Description: CaV 1.2 inhibition.

The structures appear in SMILES notation. Converted amounts (≈) assume the structure as drawn.

T1 sequence (P13569 with tags, fused parts or gaps DEL508-508): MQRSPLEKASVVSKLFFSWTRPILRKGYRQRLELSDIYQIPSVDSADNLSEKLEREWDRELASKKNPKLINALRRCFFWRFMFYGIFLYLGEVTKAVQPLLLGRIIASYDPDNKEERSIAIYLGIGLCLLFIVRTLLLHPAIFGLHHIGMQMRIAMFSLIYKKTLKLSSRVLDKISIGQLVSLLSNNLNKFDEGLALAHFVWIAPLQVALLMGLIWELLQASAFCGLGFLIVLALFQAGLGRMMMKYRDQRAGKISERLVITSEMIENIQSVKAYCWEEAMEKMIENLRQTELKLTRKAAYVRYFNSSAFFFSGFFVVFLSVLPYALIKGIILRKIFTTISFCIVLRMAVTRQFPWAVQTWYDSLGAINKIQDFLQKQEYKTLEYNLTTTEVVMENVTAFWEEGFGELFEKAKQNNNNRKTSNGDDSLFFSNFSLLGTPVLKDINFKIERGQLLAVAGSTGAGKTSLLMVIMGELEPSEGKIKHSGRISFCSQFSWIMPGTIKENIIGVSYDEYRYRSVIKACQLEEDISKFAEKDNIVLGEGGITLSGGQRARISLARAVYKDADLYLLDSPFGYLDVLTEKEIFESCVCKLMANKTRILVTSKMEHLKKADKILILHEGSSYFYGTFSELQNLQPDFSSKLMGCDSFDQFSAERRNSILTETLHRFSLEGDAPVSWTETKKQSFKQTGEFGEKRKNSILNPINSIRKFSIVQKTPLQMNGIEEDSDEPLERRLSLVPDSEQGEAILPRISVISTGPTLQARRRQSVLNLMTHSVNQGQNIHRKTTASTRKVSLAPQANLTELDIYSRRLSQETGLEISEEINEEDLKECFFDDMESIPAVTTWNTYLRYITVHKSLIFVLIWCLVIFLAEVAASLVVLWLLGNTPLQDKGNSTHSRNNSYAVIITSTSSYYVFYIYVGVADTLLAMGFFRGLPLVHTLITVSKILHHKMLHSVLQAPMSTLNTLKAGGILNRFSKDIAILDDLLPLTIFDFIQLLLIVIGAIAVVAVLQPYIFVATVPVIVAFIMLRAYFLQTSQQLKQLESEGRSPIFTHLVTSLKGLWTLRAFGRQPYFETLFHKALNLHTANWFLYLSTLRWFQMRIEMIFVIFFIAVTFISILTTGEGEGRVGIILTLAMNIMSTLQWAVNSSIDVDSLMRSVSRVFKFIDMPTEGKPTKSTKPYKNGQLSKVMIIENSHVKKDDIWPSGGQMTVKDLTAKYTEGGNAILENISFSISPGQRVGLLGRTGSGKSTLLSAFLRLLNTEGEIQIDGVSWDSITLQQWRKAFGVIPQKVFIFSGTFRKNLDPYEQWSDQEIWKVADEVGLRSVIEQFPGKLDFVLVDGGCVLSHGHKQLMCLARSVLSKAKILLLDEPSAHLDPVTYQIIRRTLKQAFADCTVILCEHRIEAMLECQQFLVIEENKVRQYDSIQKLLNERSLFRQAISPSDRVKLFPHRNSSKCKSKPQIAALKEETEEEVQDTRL
T2 sequence (P13569 with tags, fused parts or gaps DEL508-508): as above
Δ508/G551D-HBE, sequence (P13569 whole entry G551D, stated change not applied): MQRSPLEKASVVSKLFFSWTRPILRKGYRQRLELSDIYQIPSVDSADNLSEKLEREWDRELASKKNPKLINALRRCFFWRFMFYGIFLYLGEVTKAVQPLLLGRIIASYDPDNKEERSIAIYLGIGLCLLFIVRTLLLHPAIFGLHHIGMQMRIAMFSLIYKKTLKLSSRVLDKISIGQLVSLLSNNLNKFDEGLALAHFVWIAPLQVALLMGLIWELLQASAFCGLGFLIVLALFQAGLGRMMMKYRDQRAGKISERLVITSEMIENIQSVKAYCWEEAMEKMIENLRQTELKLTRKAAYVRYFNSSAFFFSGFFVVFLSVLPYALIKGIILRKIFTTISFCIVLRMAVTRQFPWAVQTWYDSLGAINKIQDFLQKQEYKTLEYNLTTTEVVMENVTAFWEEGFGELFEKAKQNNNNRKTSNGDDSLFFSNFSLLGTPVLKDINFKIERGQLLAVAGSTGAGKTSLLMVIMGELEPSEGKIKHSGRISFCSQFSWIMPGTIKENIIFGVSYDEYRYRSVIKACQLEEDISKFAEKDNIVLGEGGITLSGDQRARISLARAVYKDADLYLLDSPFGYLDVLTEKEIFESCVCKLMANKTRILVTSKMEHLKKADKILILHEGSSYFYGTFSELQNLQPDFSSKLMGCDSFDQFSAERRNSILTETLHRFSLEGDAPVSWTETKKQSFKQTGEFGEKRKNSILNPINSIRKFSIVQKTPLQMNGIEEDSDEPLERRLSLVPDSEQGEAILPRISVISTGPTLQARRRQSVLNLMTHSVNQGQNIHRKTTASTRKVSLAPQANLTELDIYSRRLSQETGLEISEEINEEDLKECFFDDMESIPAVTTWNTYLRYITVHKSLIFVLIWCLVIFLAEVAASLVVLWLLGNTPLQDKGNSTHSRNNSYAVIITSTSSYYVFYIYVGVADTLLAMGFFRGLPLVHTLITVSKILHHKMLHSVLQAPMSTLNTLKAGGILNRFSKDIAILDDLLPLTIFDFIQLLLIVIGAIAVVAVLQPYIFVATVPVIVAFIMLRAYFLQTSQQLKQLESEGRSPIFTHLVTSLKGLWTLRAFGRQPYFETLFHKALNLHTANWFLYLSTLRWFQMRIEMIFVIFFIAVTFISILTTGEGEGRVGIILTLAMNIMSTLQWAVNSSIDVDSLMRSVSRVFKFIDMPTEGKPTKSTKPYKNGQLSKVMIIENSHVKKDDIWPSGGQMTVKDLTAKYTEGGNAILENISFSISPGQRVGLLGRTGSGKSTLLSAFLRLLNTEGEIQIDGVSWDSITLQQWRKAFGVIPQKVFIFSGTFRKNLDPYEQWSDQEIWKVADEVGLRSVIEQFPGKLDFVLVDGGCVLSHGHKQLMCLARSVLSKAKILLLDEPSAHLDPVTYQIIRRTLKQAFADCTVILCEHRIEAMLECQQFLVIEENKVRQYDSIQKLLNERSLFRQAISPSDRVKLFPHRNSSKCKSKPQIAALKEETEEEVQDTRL
Δ508/G551D-HBE, sequence (P13569 whole entry G551D, stated change not applied): as above

In general, EC50 refers to the concentration needed to bring the measured effect to its halfway point. A word on the solubility: it is how much of the substance goes into solution per volume. Read a low solubility as little dissolved substance. For orientation: IC50 means the concentration that gives 50% inhibition. A higher IC50 goes with a need for much substance. On to `CC(C)(C)c1cc(C(C)(C)CO)c(O)cc1NC(=O)c1c[nH]c2ccccc2c1=O` [Compound 27, N-(2-tert-butyl-5-hydroxy-4-(1-hydroxy-2-methylpropan-2-yl)phenyl)-4-oxo-1,4-dihydroquinoline-3-carboxamide], for which the “HLM/RLM (% remain. @ 30 min)” value in data set [1] is “++ (“++” if efficacy was calculated to be from 100% to 25%)”. For the same compound, the EC50 (in data set [2]; on Δ508/G551D-HBE; at ΔF508-CFTR in HBE) was below 2000 nM throughout. Also, in data set [3], the solubility turned out to be 87 µM (≈ 35.5 µg/mL). The same compound displayed an IC50 against CaV 1.2 above 5000 nM.
Take `CC(C)(C)c1cc(C(C)(C)C(=O)O)c(O)cc1NC(=O)c1c[nH]c2ccccc2c1=O` [Compound 28, 2-(5-tert-butyl-2-hydroxy-4-(4-oxo-1,4-dihydroquinoline-3-carboxamido)phenyl)-2-methylpropanoic acid]: the “HLM/RLM (% remain. @ 30 min)” value in data set [1] is reported as “+++ (“+++” if efficacy was calculated to be greater than 100%)”. The results for the EC50 (in data set [2]; on Δ508/G551D-HBE; on ΔF508-CFTR in HBE) were 2000 to 5000 nM, 2000 to 5000 nM and below 2000 nM, respectively. In addition, the solubility in data set [3] is above 200 µM.

Values taken from US8796308B2, “Modulators of cystic fibrosis transmembrane conductance regulator” (Vertex Pharmaceuticals Incorporated, priority 2009, dated 2014).
